Results as given in PubChem BioAssay (NCI).
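The concentration for 50% growth inhibition is given as GI50. The concentration for full growth arrest is given as TGI.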

Experiments:
Assay in all cases: NCI anticancer screen, dose series, 384-well format
786-0 renal = system: 786-0 renal
A498 renal = system: A498 renal
A549 NSCLC = system: A549 NSCLC
ACHN renal = system: ACHN renal
BT-549 breast = system: BT-549 breast
CAKI-1 renal = system: CAKI-1 renal
CCRF-CEM leukemia = system: CCRF-CEM leukemia
COLO 205 colon = system: COLO 205 colon
DU-145 prostate = system: DU-145 prostate
HCC-2998 colon = system: HCC-2998 colon
HCT-116 colon = system: HCT-116 colon
HCT-15 colon = system: HCT-15 colon
HL-60(TB) leukemia = system: HL-60(TB) leukemia
HOP-62 NSCLC = system: HOP-62 NSCLC
HOP-92 NSCLC = system: HOP-92 NSCLC
HT29 colon = system: HT29 colon
IGROV1 ovarian = system: IGROV1 ovarian
K-562 leukemia = system: K-562 leukemia
KM12 colon = system: KM12 colon
LOX IMVI melanoma = system: LOX IMVI melanoma
M14 melanoma = system: M14 melanoma
MALME-3M melanoma = system: MALME-3M melanoma
MCF7 breast = system: MCF7 breast
MDA-MB-231 breast = system: MDA-MB-231 breast
MDA-MB-435 melanoma = system: MDA-MB-435 melanoma
MDA-MB-468 breast = system: MDA-MB-468 breast
MOLT-4 leukemia = system: MOLT-4 leukemia
NCI-H226 lung = system: NCI-H226 lung
NCI-H23 lung = system: NCI-H23 lung
NCI-H322M lung = system: NCI-H322M lung
NCI-H460 NSCLC = system: NCI-H460 NSCLC
NCI-H522 lung = system: NCI-H522 lung
NCI/ADR-RES ovarian = system: NCI/ADR-RES ovarian
OVCAR-3 ovarian = system: OVCAR-3 ovarian
OVCAR-4 ovarian = system: OVCAR-4 ovarian
OVCAR-5 ovarian = system: OVCAR-5 ovarian
OVCAR-8 ovarian = system: OVCAR-8 ovarian
PC-3 prostate = system: PC-3 prostate
RPMI-8226 leukemia = system: RPMI-8226 leukemia
RXF 393 renal = system: RXF 393 renal
SF-268 CNS = system: SF-268 CNS
SF-295 CNS = system: SF-295 CNS
SF-539 CNS = system: SF-539 CNS
SK-MEL-2 melanoma = system: SK-MEL-2 melanoma
SK-MEL-28 melanoma = system: SK-MEL-28 melanoma
SK-MEL-5 melanoma = system: SK-MEL-5 melanoma
SK-OV-3 ovarian = system: SK-OV-3 ovarian
SN12C renal = system: SN12C renal
SNB-19 CNS = system: SNB-19 CNS
SR leukemia = system: SR leukemia
SW-620 colon = system: SW-620 colon
T-47D breast = system: T-47D breast
TK-10 renal = system: TK-10 renal
U251 glioblastoma = system: U251 glioblastoma
UACC-257 melanoma = system: UACC-257 melanoma
UACC-62 melanoma = system: UACC-62 melanoma
UO-31 renal = system: UO-31 renal

Compound: C[C@H](Nc1cc(Cl)nc2c1cnn2[C@@H]1O[C@H](COP(=O)(O)CP(=O)(O)O)[C@@H](O)[C@H]1O)c1ccccc1F
- GI50 ([…]-0 renal): > 100 µM
- TGI (786-0 renal): > 100 µM
- GI50 (A498 renal): 62.1 µM
- TGI (A498 renal): > 100 µM
- GI50 (A549 NSCLC): 80.5 µM
- TGI (A549 NSCLC): > 100 µM
- GI50 (ACHN renal): > 100 µM
- TGI (ACHN renal): > 100 µM
- GI50 (BT-549 breast): 50.6 µM
- TGI (BT-549 breast): > 100 µM
- GI50 (CAKI-1 renal): > 100 µM
- TGI (CAKI-1 renal): > 100 µM
- GI50 (CCRF-CEM leukemia): 42.4 µM
- TGI (CCRF-CEM leukemia): > 100 µM
- GI50 (COLO 205 colon): > 100 µM
- TGI (COLO 205 colon): > 100 µM
- GI50 (DU-145 prostate): > 100 µM
- TGI (DU-145 prostate): > 100 µM
- GI50 (HCC-2998 colon): 72.9 µM
- TGI (HCC-2998 colon): > 100 µM
- GI50 (HCT-116 colon): > 100 µM
- TGI (HCT-116 colon): > 100 µM
- GI50 (HCT-15 colon): > 100 µM
- TGI (HCT-15 colon): > 100 µM
- GI50 (HL-60(TB) leukemia): > 100 µM
- TGI (HL-60(TB) leukemia): > 100 µM
- GI50 (HOP-62 NSCLC): > 100 µM
- TGI (HOP-62 NSCLC): > 100 µM
- GI50 (HOP-92 NSCLC): > 100 µM
- TGI (HOP-92 NSCLC): > 100 µM
- GI50 (HT29 colon): > 100 µM
- TGI (HT29 colon): > 100 µM
- GI50 (IGROV1 ovarian): > 100 µM
- TGI (IGROV1 ovarian): > 100 µM
- GI50 (K-562 leukemia): > 100 µM
- TGI (K-562 leukemia): > 100 µM
- GI50 (KM12 colon): > 100 µM
- TGI (KM12 colon): > 100 µM
- GI50 (LOX IMVI melanoma): > 100 µM
- TGI (LOX IMVI melanoma): > 100 µM
- GI50 (M14 melanoma): > 100 µM
- TGI (M14 melanoma): > 100 µM
- GI50 (MALME-3M melanoma): > 100 µM
- TGI (MALME-3M melanoma): > 100 µM
- GI50 (MCF7 breast): > 100 µM
- TGI (MCF7 breast): > 100 µM
- GI50 (MDA-MB-231 breast): > 100 µM
- TGI (MDA-MB-231 breast): > 100 µM
- GI50 (MDA-MB-435 melanoma): > 100 µM
- TGI (MDA-MB-435 melanoma): > 100 µM
- GI50 (MDA-MB-468 breast): > 100 µM
- TGI (MDA-MB-468 breast): > 100 µM
- GI50 (MOLT-4 leukemia): 58.8 µM
- TGI (MOLT-4 leukemia): > 100 µM
- GI50 (NCI-H226 lung): 56.6 µM
- TGI (NCI-H226 lung): > 100 µM
- GI50 (NCI-H23 lung): 67.3 µM
- TGI (NCI-H23 lung): > 100 µM
- GI50 (NCI-H322M lung): > 100 µM
- TGI (NCI-H322M lung): > 100 µM
- GI50 (NCI-H460 NSCLC): > 100 µM
- TGI (NCI-H460 NSCLC): > 100 µM
- GI50 (NCI-H522 lung): > 100 µM
- TGI (NCI-H522 lung): > 100 µM
- GI50 (NCI/ADR-RES ovarian): > 100 µM
- TGI (NCI/ADR-RES ovarian): > 100 µM
- GI50 (OVCAR-3 ovarian): > 100 µM
- TGI (OVCAR-3 ovarian): > 100 µM
- GI50 (OVCAR-4 ovarian): 50.6 µM
- TGI (OVCAR-4 ovarian): > 100 µM
- GI50 (OVCAR-5 ovarian): > 100 µM
- TGI (OVCAR-5 ovarian): > 100 µM
- GI50 (OVCAR-8 ovarian): > 100 µM
- TGI (OVCAR-8 ovarian): > 100 µM
- GI50 (PC-3 prostate): > 100 µM
- TGI (PC-3 prostate): > 100 µM
- GI50 (RPMI-8226 leukemia): 8.19 µM
- TGI (RPMI-8226 leukemia): 40.9 µM
- GI50 (RXF 393 renal): 28.5 µM
- TGI (RXF 393 renal): > 100 µM
- GI50 (SF-268 CNS): > 100 µM
- TGI (SF-268 CNS): > 100 µM
- GI50 (SF-295 CNS): > 100 µM
- TGI (SF-295 CNS): > 100 µM
- GI50 (SF-539 CNS): 49.9 µM
- TGI (SF-539 CNS): > 100 µM
- GI50 (SK-MEL-2 melanoma): 99.6 µM
- TGI (SK-MEL-2 melanoma): > 100 µM
- GI50 (SK-MEL-28 melanoma): > 100 µM
- TGI (SK-MEL-28 melanoma): > 100 µM
- GI50 (SK-MEL-5 melanoma): > 100 µM
- TGI (SK-MEL-5 melanoma): > 100 µM
- GI50 (SK-OV-3 ovarian): 73.8 µM
- TGI (SK-OV-3 ovarian): > 100 µM
- GI50 (SN12C renal): 70.8 µM
- TGI (SN12C renal): > 100 µM
- GI50 (SNB-19 CNS): > 100 µM
- TGI (SNB-19 CNS): > 100 µM
- GI50 (SR leukemia): 47.9 µM
- TGI (SR leukemia): > 100 µM
- GI50 (SW-620 colon): > 100 µM
- TGI (SW-620 colon): > 100 µM
- GI50 (T-47D breast): 80.7 µM
- TGI (T-47D breast): > 100 µM
- GI50 (TK-10 renal): > 100 µM
- TGI (TK-10 renal): > 100 µM
- GI50 (U251 glioblastoma): > 100 µM
- TGI (U251 glioblastoma): > 100 µM
- GI50 (UACC-257 melanoma): > 100 µM
- TGI (UACC-257 melanoma): > 100 µM
- GI50 (UACC-62 melanoma): > 100 µM
- TGI (UACC-62 melanoma): > 100 µM
- GI50 (UO-31 renal): > 100 µM
- TGI (UO-31 renal): > 100 µM
